In test [1] the test system is male Wistar rats. Description: Subtotal nephrectomy (remnant kidney) model. The test is classed as in vivo, rat. How it is done: In the chronic disease models of subtotal nephrectomy and inflammation, the sodium salt of BAY 85-3934 was used. For administration in drinking water, BAY 85-3934 sodium and enalapril were prepared as 100 mM sodium bicarbonate saline solutions (adjusted to pH 7) at final concentrations of 80 ppm and 30 ppm, respectively. Sham and vehicle control animals received saline only. Unless otherwise stated, chemicals and reagents were purchased from Sigma-Aldrich.
Subtotal nephrectomy was conducted in adult male Wistar rats. Body weight, blood pressure, hematocrit, and blood cell counts were determined at baseline and thereafter at weekly intervals. At baseline, rats were randomly distributed into two groups: those that underwent subtotal nephrectomy and those that underwent a sham procedure without reduction of renal mass. Surgery was performed in deeply anesthetized (2% isoflurane in air) animals. Kidneys were accessed via a dorsolateral incision of the body wall of about 2 cm in length. The right kidney was removed after ligature of the renal peduncle, and subsequently the upper and lower pole of the left kidney were removed, followed by careful hemostasis. Approximately one third of the initial kidney mass remained (removed tissue was weighed to check this was achieved). In the sham-treated animals, both kidneys were exposed before closure of the wound. Three weeks after surgery, animals were allocated to each group in equal proportions with respect to systolic blood pressure and hematocrit values. For 5 weeks, animals were treated twice weekly with rhEPO (100 IU/kg), or once daily with […] (2.5 mg/kg or 5.0 mg/kg) or vehicle. In experiments using enalapril or a combination of BAY 85-3934 sodium and enalapril, study drugs were administered with drinking water. BAY 85-3934 sodium and enalapril were administered in drinking water at concentrations of 80 ppm and 30 ppm, respectively. This was equivalent to approximately 2 mg/kg/day for enalapril and 5 mg/kg/day for BAY 85-3934. Systolic blood pressure and heart rate were determined using the tail-cuff method (a semi-automatic, non-invasive blood pressure monitor; TSE Systems), with three repeated measurements per animal.
EPO was measured in plasma samples taken from rodents using a commercial ELISA kit (R&D Systems), according to the manufacturer’s instructions. Relative plasma EPO levels were given in picograms per milliliter. In cynomolgus monkeys, EPO was measured using a combination anti-human EPO ELISAs (R&D Systems and Roche Diagnostics), with human EPO as a standard. Values were given as units per liter. For determination of plasma prorenin from rats, a commercial ELISA (Oxford Biomedical Research) was used according to the manufacturer’s instructions. Hemoglobin in rodent blood samples was determined on a Cell-Dyn 3700 apparatus (Abbott Diagnostics). BAY 85-3934 plasma concentrations were determined after protein precipitation with acetonitrile/ammonium acetate using an internal standard, followed by separation using HPLC/mass spectrometry.
As well as anemia and inflammation, CKD is often accompanied by hypertension, upon which treatment with rhEPO may have an unfavorable impact. The effects of BAY 85-3934 were compared with rhEPO in the remnant kidney (subtotal nephrectomy) model in rats.

Test [2] deals with A549 cells stably transfected with the HIF-RE2-luc HIF reporter construct. Put plainly: Luciferase reporter assay in A549 HIF-RE2 reporter cells. The test is classed as cell-based, human. On the procedure:
A549 and HeLa carcinoma cell lines (American Type Culture Collection) were cultured in DMEM/F-12 (Gibco), and Hep3B cells in RPMI medium, both supplemented with antibiotics, L-glutamine and 10% fetal calf serum. A549 cells stably transfected with the HIF-RE2-luc HIF reporter construct (constructed in pGL3, Promega GmbH) were seeded on 384-well plates (Greiner) at a density of 2500 cells/well in a volume of 25 µl complete cell culture medium, and re-incubated for 16–24 h before the test. Test compounds were added at appropriate dilutions in a volume of 10 µl, and cells were re-incubated for 6 h before measurement. Luciferase activity was determined in a luminometer after addition of cell lysis/luciferase buffer. Cell line identities were verified by STR DNA typing (DSMZ GmbH).
As in the enzymatic assay, and in contrast to experiments with iron-chelating agents (data not shown), luciferase activity was not altered by a high concentration of Fe^2+ (50 µM) in the culture medium (Fig. 1G). The high IC50 value observed corresponds well to the low sensitivity of A549 cells shown by western blot analysis.
For orientation: A reporter such as luciferase makes a cellular process visible.

Test [3] relates to female Lewis rats. Put plainly: PG-PS-induced inflammatory anemia model. The test is classed as in vivo, rat. On the procedure: Female Lewis rats (Harlan Laboratories), with a body weight of 155–181 g were used. Body weight, ankle diameter, hematocrit, and blood cell count were determined at baseline and thereafter at regular intervals. PG-PS from Streptococcus pyogenes (Becton Dickinson) was dissolved in sterile saline and administered via i.p. injection at 15 mg/kg. […] Two weeks after injection, animals were distributed into treatment groups in equal proportions based on their hematocrit levels. On day 15, BAY 85-3934 was given orally once daily at doses of 2.5 mg/kg and 5.0 mg/kg. At the end of the study, animals were sacrificed and kidney and liver samples were processed for qRT-PCR analysis.
Total RNA was extracted from shock-frozen cell or tissue samples using the TRIzol method. Integrity of obtained RNA was checked on a Bioanalyzer (Agilent Technologies). For reverse transcription, 1 µg of total RNA was digested with RNase-free DNase I (Gibco) for 15 min at room temperature, and then reverse-transcribed using Promiscript (Promega GmbH) in a total reaction volume of 40 µl according to the standard protocol of the supplier. After inactivation of the enzyme by heating to 65°C for 15 min, the obtained cDNA was diluted to a final volume of 150 µl with double-distilled water, and 4 µl used per PCR reaction. qRT-PCR, including normalization of raw data to cytosolic β-actin, was carried out as described previously. The resulting expression is given in arbitrary units.
Renal anemia, particularly in patients with ESRD on dialysis, is often associated with systemic inflammation and EPO resistance. The potential for BAY 85-3934 to reverse anemia was evaluated in a rodent model of protracted inflammatory anemia associated with chronic polyarthritis, induced by challenge with PG-PS [38]. The severity of the inflammatory response after PG-PS challenge was underscored by the finding that there was elevated expression of a panel of cytokines and inflammatory marker genes, several of which are known to disturb iron utilization (interleukin-1, interleukin-6, tumor necrosis factor-α, and hepcidin) and to impair proliferation and differentiation of erythroid precursors (interleukin-1 and tumor necrosis factor-α).

The structures appear in SMILES notation.

One may read the EC50 as the concentration that produces a half-maximal response.

Consider `O=c1c(-n2ccnn2)c[nH]n1-c1cc(N2CCOCC2)ncn1` [BAY 85-3934, 2-[6-(morpholin-4-yl)pyrimidin-4-yl]-4-(1H-1,2,3-triazol-1-yl)-1,2-dihydro-3H-pyrazol-3-one], for which the “mean systolic blood pressure” value in test [1] (2.5 mg/kg group) is “almost normalized values”. Besides, the “systolic blood pressure versus control and rhEPO-treated animals” value in test [1] (5 mg/kg) was “significantly lower”. Further, the “mean PCV” value in test [1] (5 mg/kg group, 2 weeks after onset of treatment) was “exceeded 50%”; in test [1] (BAY 85-3934 2.5 and 5 mg/kg once daily, rhEPO 100 IU/kg twice weekly), “significantly increased”; in test [3] (2.5 mg/kg once daily oral), “halted further decline”; in test [3] (5 mg/kg once daily oral), “reversed mean PCV decline”. Besides, the “systolic blood pressure compared with untreated controls” value in test [1] (5 weeks, tail-cuff) is listed as “sustained reduction”. The cardiac hypertrophy entry in test [1] (data not shown) is “complete prevention”. Besides, in test [1] (once daily oral, 5 weeks), the “plasma prorenin after the decrease in blood pressure” value is “not followed by the return of prorenin to normal levels”. Besides, the “luciferase activity at high Fe2+ in the culture medium” value in test [2] (Fe2+ 50 µM) is “not altered”. In addition, the EC50 in test [2] (Homo sapiens, A549, 6 h incubation, n = 4, read-out: mean (± SD) EC50 of luciferase reporter induction) is 8.4 ± 0.7 µM. In addition, the “expression levels of monocyte chemotactic protein-1 and hepcidin” value in test [3] (5 mg/kg dose group) is listed as “significantly reduced”. Besides, in test [3] (5 mg/kg once daily oral), the “time after PG-PS challenge for PCV to return to normal levels” value is given as no more than 5 weeks. In test [3] (data not shown), the “initial increase in white blood cell count” value is on record as “attenuated”. Moreover, the “kidney EPO mRNA expression” value in test [3] (end of study) is “significantly larger increase”. In addition, the “course of polyarthritis (hind limb ankle diameter, body weight gain)” value in test [3] (rat, in vivo) is recorded as “did not influence”.

The values are drawn from paper PMC4230943, “Mimicking Hypoxia to Treat Anemia: HIF-Stabilizer BAY 85-3934 (Molidustat) Stimulates Erythropoietin Production without Hypertensive Effects” (PLoS ONE, 2014).
